{"source": "patent US20150125863A1", "about": "“CXCL5 AS A MARKER OF HORMONE ESCAPE IN PROSTATE CANCER” (Institut National de la Sante Recherche Medicale (INSERM), priority 2010, published 2015)", "key": {"[1]": {"system": "CXCL5 RNA levels in LNCaP cells", "details": "CDFCS + 10^-8 M Dihydrotestosterone vs CDFCS (FIG. 5B)", "experimental": "CXCL5 RNA levels were measured by real-time PCR. CXCL5 levels in the presence of FCS were set to 1. Results represent the mean±SD of 3 independent experiments.\nCWR-R1 and LNCaP cells were maintained in RPMI 1640 with Glutamax (Invitrogen, Carlsbad, USA), completed with 10% Foetal Calf Serum (FCS) and gentamycin. For androgen stimulations, cells were weaned off steroids before any experiment by culturing them in phenol red-free RPMI 1640 supplemented with 10% CDFCS (charcoal dextran-treated FCS) for 4 days.\nTotal RNA was prepared using TriReagent (Euromedex, Souffelweyersheim, France). The amount of RNA was estimated by spectrophotometry at 260 nm. Complementary DNAs (cDNA) were obtained from reverse transcription (RT) of 3 μg of total RNA in 13 μl of water RNase free. 1 μl of random hexanucleotides as primers (pd(N)6, 50 mM) in the presence of 1 μl of dNTPs (250 mM; Gibco BRL) were added to the RNA and incubated 5 minutes at 70° C. After, 5 μl of mix containing reverse transcriptase (1 μl) and reverse transcriptase buffer 5× (4 μl) were added to the RNA solution and incubated 1 h at 42° C. Real-time PCR quantification was then performed using a SYBR Green approach (Light Cycler; Roche) as previously described (Lucas et al. 2003 Biochem Biophys Res Commun 309:1011-1016). For each sample, CXCL5 mRNA levels were normalized with RS9 mRNA levels (reference gene)."}, "[2]": {"system": "CXCL5 RNA levels in CWR-R1 cells", "experiment": "CXCL5 RNA levels by real-time PCR in CWR-R1 cells", "assay_type": "cell-based", "details": "CDFCS + 10^-8 M Dihydrotestosterone vs CDFCS (FIG. 5A)", "description": "(§1) Results represent the mean±SD of 3 independent experiments.\nas §1"}, "CWR-R1 cells": {"system": "CWR-R1 cells", "experiment": "In vitro proliferation of CWR-R1 cells", "assay_type": "cell-based", "details": "CXCL5 1 or 50 ng/ml with 10^-5 M bicalutamide, 5 days (FIG. 6B)", "method": "CWR-R1 cells were cultured in whole fetal calf serum (FCS), in the absence or in the presence of […] of bicalutamide. CXCL5 RNA levels were measured by real-time PCR. […] Results represent the mean±SD of 3 independent experiments. B. CXCL5 enhances the proliferation of CWR-R1 cells both in the absence and in the presence of the anti-androgen bicalutamide. CWR-R1 cells were cultured in FCS. Some cells were treated with 10^-5 M bicalutamide. The cells were either treated with Ethanol vehicle (C) or with CXCL5 (1 or 50 ng/ml). Proliferation was quantified 5 days after treatment by counting the cells.\n2.5×10^4 cells per well were seeded in triplicate in 24-well culture plates in complete growth media previously described. Cell numbers were determined every two days for 6 days by counting with a malassez slide or by measuring of luciferase activity. For proliferation in complete fetal calf serum, cells were maintained in […] with RPMI 1640. To test the effects of androgens, cells were maintained in phenol-red free RPMI 1640 medium supplemented with 10% FCS."}, "PC-3 cells": {"system": "PC-3 cells", "experiment": "Blocking experiments with shCXCL5, PC-3 cell proliferation", "assay_type": "cell-based", "details": "PC-3 cells transfected with shCXCL5 vector, cells counted on day 4 (FIG. 9C)", "method": "(§2) A. PC-3 cells were grown for 4 days and either non treated (Control) or treated with goat serum (diluted 1/20) as isotype control antibody (Isotype) or with 0.5 μg/ml of CXCL5 antibody (CXCL5 Ab). Medium with or without treatment was changed at day 2. Results represent the mean of luciferase activity±SD after 4 days of 3 independent experiments. B, C. PC-3 cells were transfected with Non-Target shRNA Control (shCt) or shCXCL5 vector. 4 days later, the medium was collected and CXCL5 levels were measured by Elisa (B). The number of cells was counted on day 4 (C). A representative experiment is shown here.\n(§3) 10^5 PC-3 cells plated in 6 well plated in 10% FCS with RPMI 1640 were transfected with 4 μg of Non-Target shRNA Control Vector (ShC002, Mission Library, Sigma-Aldrich) or shCXCL5 vector (SHCLND-NM_002994-TRCN0000057934NM_002994.3-304s1c1TRC1, Sequence SEQ ID NO: 6: […] Mission Library, Sigma-Aldrich) using Jet-PEI® protocol in each well. 8 h after transfection medium was changed. CXCL5 secretion was quantified 48 h later in conditioned medium by ELISA (Duoset, DY254, R&D system). Cells were counted 4 days after transfection using malassez slide."}, "[3]": {"system": "CXCL5 expression in PC-3 cells", "experiment": "Blocking experiments with shCXCL5, CXCL5 levels by Elisa in PC-3 cells", "assay_type": "cell-based", "details": "PC-3 cells transfected with shCXCL5 vector, compared to Non-Target shRNA Control Vector, after 4 days, Elisa (FIG. 9B)", "method": "as §2, §3"}}}
{"compound": "C[C@]12CCC(=O)C[C@@H]1CC[C@@H]1[C@@H]2CC[C@]2(C)[C@@H](O)CC[C@@H]12", "note": "[dihydrotestosterone]", "values": [{"measurement": "effect on levels of CXCL5 RNA", "setting": "[1]", "value": "partially reduced"}, {"measurement": "effect on levels of CXCL5 RNA", "setting": "[2]", "value": "partially reduced"}]}
{"compound": "recombinant CXCL5: recombinant C-X-C motif chemokine 5 added to CWR-R1 cells", "values": [{"measurement": "effect on the inhibition of proliferation by bicalutamide", "setting": "CWR-R1 cells", "value": "partially alleviate"}]}
{"compound": "shCXCL5: shRNA vector against CXCL5, SEQ ID NO: 6, Mission Library, Sigma-Aldrich (DNA CCGGGATCAGTAATCTGCAAGTGTTCTCGAGAACACTTGCAGATTACTGATCTTTTTG)", "values": [{"measurement": "inhibition of proliferation of PC-3 cells", "setting": "PC-3 cells", "value": "more than 10 fold"}, {"measurement": "CXCL5 expression", "setting": "[3]", "value": "strongly reduced"}]}
